Laboratory results: PubChem BioAssay (NCI)
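Growth conditions: 96-well plates. Treatment: test compound, 48 hours, 5 concentrations. Analysis: linear interpolation between bracketing concentrations; unreached endpoints set to highest concentration. GI50 is the concentration that inhibits growth by half. TGI is the concentration that stops growth completely.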

Assays:
Assay in all cases: DTP human tumour cell line panel, 48 h
[1] = test system: LOX IMVI melanoma
[2] = test system: LXFL 529 NSCLC
[3] = test system: SK-OV-3 ovarian
[4] = test system: HCT-116 colon
[5] = test system: OVCAR-3 ovarian
[6] = test system: M19-MEL melanoma
[7] = test system: SN12C renal
[8] = test system: RXF 393 renal
[9] = test system: DMS 273 small cell lung
[10] = test system: NCI/ADR-RES ovarian

Compound | TGI [1] | TGI [2] | TGI [3] | TGI [4] | TGI [5] | TGI [6] | TGI [7] | TGI [8] | TGI [9] | GI50 [1] | GI50 [3] | GI50 [4] | GI50 [10] | TGI [10] | GI50 [5] | GI50 [7] | GI50 [8]
CCOc1ccccc1N=Nc1c(-c2ccccc2)nn(C(=O)CC(=O)Nc2cccc(C)c2)c1-c1ccccc1 | > 100 µM | > 100 µM | > 100 µM | > 100 µM | > 100 µM | > 100 µM | > 100 µM | > 100 µM | > 100 µM | – | – | – | – | – | – | – | –
CNS(=O)(=O)NNS(=O)(=O)c1ccc(OC)cc1 | > 100 µM | > 100 µM | > 100 µM | > 100 µM | > 100 µM | > 100 µM | – | > 100 µM | > 100 µM | – | – | – | – | – | – | – | –
NC1=NN(c2ccccc2)C(=O)C1C(=O)C(=O)Nc1ccc(Cl)c(Cl)c1 (centres undefined) | – | – | > 100 µM | > 100 µM | > 100 µM | > 100 µM | > 100 µM | > 100 µM | > 100 µM | – | – | – | – | – | – | – | –
CCNC(=O)OCc1c(COC(=O)NCC)c(-c2ccc(Cl)c(Cl)c2)n2c1CCC2 | – | 34.8 µM | – | 33.6 µM | 45.8 µM | 58.1 µM | – | – | 31.1 µM | – | – | – | – | – | – | – | –
COc1cc(/C=N/N=C(\N)NO)c(Cl)cc1O | > 100 µM | > 100 µM | > 100 µM | > 100 µM | – | > 100 µM | > 100 µM | > 100 µM | – | – | – | – | – | – | – | – | –
N#CC(C(=O)/C(=N\NC(N)=O)C(C#N)c1ccccc1)c1ccccc1 (centres undefined) | – | > 100 µM | > 100 µM | > 100 µM | > 100 µM | – | > 100 µM | > 100 µM | > 100 µM | – | – | – | – | – | – | – | –
O=C(NCC1CCCO1)c1ccc(NC2=C(Cl)C(=O)N(Cc3ccccc3)C2=O)cc1 (centres undefined) | > 100 µM | – | 36.6 µM | 26.2 µM | 10.7 µM | – | 7.32 µM | 50.8 µM | – | 24.5 µM | 18.6 µM | 13.3 µM | 23.9 µM | 51.4 µM | 3.18 µM | 0.0654 µM | 20.6 µM
COC1(OC)C2(Cl)C(Cl)=C(Cl)C1(Cl)C1C2C2CC1(C(=O)O)c1ccccc12 (centres undefined) | 32 µM | 28 µM | 91.3 µM | 33.8 µM | 33.4 µM | 38.3 µM | 40.9 µM | – | 41.2 µM | – | – | – | – | – | – | – | –
CC(=O)[C@H]1CCC/C=C/[C@@H]2C[C@H](O)C[C@H]2[C@H](O)/C=C/C(=O)O1 | 0.633 µM | – | > 31.6 µM | 1.18 µM | 5.01 µM | – | > 100 µM | 0.742 µM | – | 0.212 µM | 2.43 µM | 0.337 µM | 0.527 µM | 3.46 µM | 0.393 µM | 2.17 µM | 0.236 µM
Cc1cc2c(-c3nc4ccccn4c3N)c(O)c(O)cc2c(O)c1-c1c(C)cc2c(-c3nc4ccccn4c3N)c(O)c(O)cc2c1O | > 25 µM | – | 6.03 µM | > 25 µM | > 25 µM | – | > 25 µM | 18 µM | – | 0.582 µM | 0.805 µM | 0.163 µM | 4.49 µM | > 25 µM | 1.36 µM | 0.82 µM | 0.682 µM
COc1cc(C2c3cc4c(cc3C(OC(=O)C[n+]3ccccc3)C3COC(=O)C23)OCO4)cc(OC)c1OC (centres undefined) | > 100 µM | – | > 100 µM | > 100 µM | < 0.0255 µM | – | > 100 µM | > 100 µM | – | < 0.0179 µM | < 0.0207 µM | < 0.0181 µM | < 0.0169 µM | > 100 µM | < 0.016 µM | < 0.0247 µM | < 0.0191 µM
O=C1c2ccccc2C2CCC1c1ccccc12 (centres undefined) | > 100 µM | > 100 µM | > 100 µM | 46.4 µM | > 100 µM | 96.1 µM | > 100 µM | 78 µM | 71.4 µM | – | – | – | – | – | – | – | –
C#CCN(c1ccc(C(=O)N[C@@H](CCC(=O)N[C@H](CCC(=O)O)C(=O)O)C(=O)O)cc1)C1CCc2cc3nc(CO)[nH]c(=O)c3cc21 (some centres undefined) | > 100 µM | – | > 100 µM | > 100 µM | > 100 µM | – | > 100 µM | > 100 µM | – | 5.12 µM | > 53.4 µM | 7.53 µM | 8.58 µM | > 100 µM | > 100 µM | 6.78 µM | 63.8 µM
Nc1ccccc1C(=O)CCC1C(=O)NC(=S)NC1=O | > 100 µM | > 100 µM | > 100 µM | > 100 µM | > 100 µM | > 100 µM | – | > 100 µM | > 100 µM | – | – | – | – | > 100 µM | – | – | –
O=C1c2ccccc2-c2c1c1ccccc1c(=O)n2CCCNCCn1c2c(c3ccccc3c1=O)C(=O)c1ccccc1-2 | 3.16 µM | – | > 100 µM | 3.13 µM | 21.1 µM | – | 22.9 µM | 13.9 µM | – | 0.0855 µM | 19.2 µM | 1.05 µM | 11.3 µM | 25.9 µM | 8.82 µM | 10.9 µM | 2.29 µM
COC1OC2COC(C)(C)OC2C(OC(C)=O)C1NC(=O)N(CCCl)N=O (centres undefined) | > 100 µM | > 100 µM | > 100 µM | > 100 µM | > 100 µM | > 100 µM | > 100 µM | > 100 µM | > 100 µM | – | – | – | – | – | – | – | –
CCOP(=O)(OCC)C(C(=O)OC)C(=O)C(=O)Nc1cccc(O)c1 (centres undefined) | > 100 µM | – | > 100 µM | > 100 µM | > 100 µM | – | > 100 µM | > 100 µM | – | – | – | – | – | > 100 µM | – | – | –
Clc1cccc(C2N3CCCCC3[C@@H]3c4[nH]c5ccccc5c4CCN23)c1 (some centres undefined) | – | – | > 100 µM | 30.8 µM | > 100 µM | 48 µM | 26.5 µM | 47.5 µM | > 100 µM | – | – | – | – | – | – | – | –
Cn1cc(-c2cnn3c(N)c(Br)c(C4CCCNC4)nc23)cn1 (centres undefined) | 18.9 µM | – | 66.8 µM | 24.6 µM | > 88.9 µM | – | 50.6 µM | 0.799 µM | – | 2.71 µM | 4.06 µM | 6.04 µM | 8.36 µM | > 100 µM | 16 µM | 3.86 µM | 0.257 µM
C/C=C1\CN2CCc3c([nH]c4ccccc34)C2CC1CCO (centres undefined) | > 100 µM | > 100 µM | > 100 µM | > 100 µM | > 100 µM | > 100 µM | > 100 µM | > 100 µM | > 100 µM | – | – | – | – | – | – | – | –
